pIC50: −log10 of the molar value. Read-outs that look alike come from different tables or passages of the source.
What was measured:
[1] = target: BLK (Homo sapiens, UniProt P51451); assay: In vitro kinase inhibition studies (Table 13), BLK; type: biochemical
[2] = target: ERBB2 (Homo sapiens, UniProt P04626); assay: In vitro kinase inhibition studies (Table 13), ERBB2; type: biochemical
[3] = target: CSK (Homo sapiens, UniProt P41240); assay: In vitro kinase inhibition studies (Table 13), CSK; type: biochemical
[4] = target: BTK (Homo sapiens, UniProt Q06187); assay: Covalent modification of BTK by mass spectrometry of the intact protein; type: binding; parameters: His-tagged BTK kinase domain was prepared from pET-28b(+)-BTK (402-655) vector; conditions: 10 μM BTK, 50 μM compound, 2 hours at 30° C.; expected 596 Da
Procedure: After incubation of 10 μM BTK in the presence of 50 μM Compound 5-1 for 2 hours at 30° C., the mass of the modified protein was determined by mass spectrometry. […] After incubation with Compound 5-1, the intensity of this had decreased by an order of magnitude, and the most intense peak is consistent with the protein whose mass was increased by 595 Da, corresponding closely to the expected mass of the inhibitor Compound 5-1 (less one fluoride from inhibitor, and one proton from protein, 596 Da).

[5] = target: SRC (Homo sapiens, UniProt P12931); assay: In vitro kinase inhibition studies (Table 13), SRC; type: biochemical
[6] = target: MAP2K7 (Homo sapiens, UniProt O14733); assay: In vitro kinase inhibition studies (Table 13), MAP2K7; type: biochemical
[7] = target: FGFR4 (Homo sapiens, UniProt P22455); assay: In vitro kinase inhibition studies (Table 9), FGFR4; type: biochemical
[8] = target: FGFR2 (Homo sapiens, UniProt P21802); assay: In vitro kinase inhibition studies (Table 13), FGFR2; type: biochemical
[9] = system: RL cells; assay: IC50 of Ibrutinib analogs against human cancer cells, RL cells (Table 14); type: cell-based; conditions: for pIC50: Homo sapiens, RL, read-out: RL (IC50)
Procedure: 1×10^4 cells (NHF cells)/well are plated in 96-well assay plates in culture medium. […] After 24 hrs, test compounds and vehicle controls are added to appropriate wells so the final volume is 100p in each well. The cells are cultured for the desired test exposure period (72 hrs) at 37° C. and 5% CO2. The assay plates are removed from 37° C. incubator and 20 μl/well of CellTiter-Blue® Reagent is added. The plates are incubated using standard cell culture conditions for 1-4 hours and the plates are shaken for 10 seconds and record fluorescence at 560/590 nm. […] Therapeutic index=(IC50 human fibroblasts/IC50 […] )

Chain of FGFR2 (P21802 22-821, species assumed): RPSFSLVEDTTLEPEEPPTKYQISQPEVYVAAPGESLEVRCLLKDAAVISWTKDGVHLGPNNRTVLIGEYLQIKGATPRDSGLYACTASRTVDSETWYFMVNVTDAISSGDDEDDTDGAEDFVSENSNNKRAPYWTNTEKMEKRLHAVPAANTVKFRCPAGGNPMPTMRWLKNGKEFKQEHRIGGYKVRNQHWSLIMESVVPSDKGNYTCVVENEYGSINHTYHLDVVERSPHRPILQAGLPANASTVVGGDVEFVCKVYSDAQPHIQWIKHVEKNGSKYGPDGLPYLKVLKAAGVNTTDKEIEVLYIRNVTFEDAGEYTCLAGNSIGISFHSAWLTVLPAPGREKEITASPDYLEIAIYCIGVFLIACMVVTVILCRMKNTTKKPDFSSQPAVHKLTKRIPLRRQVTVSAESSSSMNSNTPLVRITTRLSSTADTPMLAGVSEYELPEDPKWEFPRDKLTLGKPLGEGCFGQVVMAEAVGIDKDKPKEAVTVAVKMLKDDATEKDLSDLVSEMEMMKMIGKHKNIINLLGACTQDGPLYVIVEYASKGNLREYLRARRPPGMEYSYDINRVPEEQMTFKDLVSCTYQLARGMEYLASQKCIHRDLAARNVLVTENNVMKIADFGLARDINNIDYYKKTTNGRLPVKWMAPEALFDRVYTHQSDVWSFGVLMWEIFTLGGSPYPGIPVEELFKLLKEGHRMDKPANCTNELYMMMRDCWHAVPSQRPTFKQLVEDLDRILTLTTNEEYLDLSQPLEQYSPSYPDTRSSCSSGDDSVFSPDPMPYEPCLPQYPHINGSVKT
Chain of ERBB2 (P04626 23-1255, species assumed): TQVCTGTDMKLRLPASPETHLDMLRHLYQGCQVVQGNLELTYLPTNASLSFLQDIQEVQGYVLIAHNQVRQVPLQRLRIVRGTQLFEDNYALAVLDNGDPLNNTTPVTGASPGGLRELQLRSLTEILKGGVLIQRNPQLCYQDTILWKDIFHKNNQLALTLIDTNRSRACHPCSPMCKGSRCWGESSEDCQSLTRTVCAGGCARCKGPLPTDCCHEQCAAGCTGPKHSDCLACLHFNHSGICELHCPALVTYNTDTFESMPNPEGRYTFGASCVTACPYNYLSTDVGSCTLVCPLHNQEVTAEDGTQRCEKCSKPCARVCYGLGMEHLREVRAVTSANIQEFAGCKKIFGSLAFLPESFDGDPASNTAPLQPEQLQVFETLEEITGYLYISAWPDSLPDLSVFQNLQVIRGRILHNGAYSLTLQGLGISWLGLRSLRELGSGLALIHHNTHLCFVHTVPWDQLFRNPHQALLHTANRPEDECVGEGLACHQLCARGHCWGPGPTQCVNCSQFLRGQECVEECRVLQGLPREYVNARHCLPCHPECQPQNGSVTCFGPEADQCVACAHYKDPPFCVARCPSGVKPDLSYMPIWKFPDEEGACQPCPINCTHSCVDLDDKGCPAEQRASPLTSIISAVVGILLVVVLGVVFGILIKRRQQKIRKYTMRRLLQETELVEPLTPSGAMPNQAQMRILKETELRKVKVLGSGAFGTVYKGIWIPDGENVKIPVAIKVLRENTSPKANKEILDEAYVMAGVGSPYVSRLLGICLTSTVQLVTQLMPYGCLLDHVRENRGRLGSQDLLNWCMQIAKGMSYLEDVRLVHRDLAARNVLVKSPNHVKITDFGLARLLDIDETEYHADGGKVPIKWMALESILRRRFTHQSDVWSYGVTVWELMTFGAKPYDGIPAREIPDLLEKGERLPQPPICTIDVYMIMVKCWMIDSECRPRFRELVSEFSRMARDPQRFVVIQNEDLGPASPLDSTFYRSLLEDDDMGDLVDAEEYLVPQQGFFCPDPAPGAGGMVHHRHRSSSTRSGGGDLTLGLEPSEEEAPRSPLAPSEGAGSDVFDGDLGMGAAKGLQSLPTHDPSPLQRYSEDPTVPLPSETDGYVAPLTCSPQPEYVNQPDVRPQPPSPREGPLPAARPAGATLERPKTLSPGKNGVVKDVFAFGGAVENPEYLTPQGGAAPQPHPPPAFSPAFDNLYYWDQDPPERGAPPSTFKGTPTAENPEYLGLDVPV
Chain of BLK (P51451 whole entry, species assumed): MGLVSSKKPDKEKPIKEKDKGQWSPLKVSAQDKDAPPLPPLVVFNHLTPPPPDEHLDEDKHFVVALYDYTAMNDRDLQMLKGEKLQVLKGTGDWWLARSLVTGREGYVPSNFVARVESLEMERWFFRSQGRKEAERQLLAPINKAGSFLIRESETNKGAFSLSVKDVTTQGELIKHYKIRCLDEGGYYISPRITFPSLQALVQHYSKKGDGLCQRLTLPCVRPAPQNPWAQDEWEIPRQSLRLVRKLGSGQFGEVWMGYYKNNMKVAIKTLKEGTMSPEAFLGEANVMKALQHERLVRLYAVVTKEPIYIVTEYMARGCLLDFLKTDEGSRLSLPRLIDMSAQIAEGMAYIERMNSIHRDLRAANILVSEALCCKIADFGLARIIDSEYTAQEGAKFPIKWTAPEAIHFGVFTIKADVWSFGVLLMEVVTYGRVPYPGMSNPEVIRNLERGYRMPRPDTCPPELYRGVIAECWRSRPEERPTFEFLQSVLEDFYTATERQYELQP
Chain of FGFR4 (P22455 22-802, species assumed): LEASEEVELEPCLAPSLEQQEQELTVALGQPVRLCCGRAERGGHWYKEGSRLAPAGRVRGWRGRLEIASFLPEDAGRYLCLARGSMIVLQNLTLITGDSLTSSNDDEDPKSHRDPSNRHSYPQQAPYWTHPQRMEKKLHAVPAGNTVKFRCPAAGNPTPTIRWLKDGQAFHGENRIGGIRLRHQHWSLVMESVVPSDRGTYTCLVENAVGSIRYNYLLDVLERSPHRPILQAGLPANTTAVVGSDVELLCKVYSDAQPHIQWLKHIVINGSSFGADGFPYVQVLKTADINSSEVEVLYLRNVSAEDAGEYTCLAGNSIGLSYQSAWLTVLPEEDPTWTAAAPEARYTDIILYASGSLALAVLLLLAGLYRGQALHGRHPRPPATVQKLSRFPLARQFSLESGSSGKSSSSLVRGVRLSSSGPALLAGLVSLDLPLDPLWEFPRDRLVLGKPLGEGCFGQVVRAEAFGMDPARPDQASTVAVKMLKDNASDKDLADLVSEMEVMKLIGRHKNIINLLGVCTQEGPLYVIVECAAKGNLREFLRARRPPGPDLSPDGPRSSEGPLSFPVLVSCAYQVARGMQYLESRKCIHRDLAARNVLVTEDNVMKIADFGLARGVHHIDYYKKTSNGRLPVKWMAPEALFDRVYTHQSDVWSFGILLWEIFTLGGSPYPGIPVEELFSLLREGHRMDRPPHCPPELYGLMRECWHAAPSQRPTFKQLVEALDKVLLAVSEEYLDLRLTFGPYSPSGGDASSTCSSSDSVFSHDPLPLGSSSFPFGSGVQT
Chain of BTK (Q06187 402-655 limits assumed, species assumed): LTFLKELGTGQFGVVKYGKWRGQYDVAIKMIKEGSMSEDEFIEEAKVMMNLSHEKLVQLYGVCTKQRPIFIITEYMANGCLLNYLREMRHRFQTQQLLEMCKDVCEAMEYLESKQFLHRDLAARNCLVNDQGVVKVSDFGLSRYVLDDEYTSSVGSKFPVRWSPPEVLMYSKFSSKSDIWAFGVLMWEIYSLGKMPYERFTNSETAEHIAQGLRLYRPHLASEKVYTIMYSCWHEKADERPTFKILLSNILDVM
Chain of MAP2K7 (O14733 whole entry, species assumed): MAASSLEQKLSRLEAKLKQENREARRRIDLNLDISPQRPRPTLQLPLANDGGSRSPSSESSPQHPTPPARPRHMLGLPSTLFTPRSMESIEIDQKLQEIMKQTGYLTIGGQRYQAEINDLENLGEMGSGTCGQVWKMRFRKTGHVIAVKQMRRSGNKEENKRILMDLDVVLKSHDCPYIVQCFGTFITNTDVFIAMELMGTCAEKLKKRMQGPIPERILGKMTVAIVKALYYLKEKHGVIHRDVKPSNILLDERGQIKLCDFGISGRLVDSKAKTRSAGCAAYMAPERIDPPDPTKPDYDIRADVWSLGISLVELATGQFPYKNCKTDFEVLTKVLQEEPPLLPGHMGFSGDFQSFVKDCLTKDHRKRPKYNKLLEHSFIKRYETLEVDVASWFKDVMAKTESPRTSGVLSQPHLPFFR
Chain of SRC (P12931 whole entry, species assumed): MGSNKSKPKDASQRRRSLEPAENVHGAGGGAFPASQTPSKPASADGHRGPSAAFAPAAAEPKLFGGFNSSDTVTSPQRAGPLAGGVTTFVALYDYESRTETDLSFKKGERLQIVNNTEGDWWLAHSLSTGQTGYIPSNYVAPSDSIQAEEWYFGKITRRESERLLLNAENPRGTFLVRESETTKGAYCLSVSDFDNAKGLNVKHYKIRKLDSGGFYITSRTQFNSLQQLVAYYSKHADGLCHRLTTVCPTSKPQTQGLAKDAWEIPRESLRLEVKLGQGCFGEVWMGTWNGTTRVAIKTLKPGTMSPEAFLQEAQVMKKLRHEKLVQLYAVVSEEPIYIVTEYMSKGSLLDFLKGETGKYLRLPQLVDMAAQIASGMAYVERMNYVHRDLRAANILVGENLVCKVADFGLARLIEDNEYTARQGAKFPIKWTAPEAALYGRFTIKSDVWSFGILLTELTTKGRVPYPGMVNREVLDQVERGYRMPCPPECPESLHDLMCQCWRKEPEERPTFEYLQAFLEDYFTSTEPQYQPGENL

IC50 [1]: 100 to 1000 nM
IC50 [2]: 100 to 1000 nM
IC50 [3]: 100 to 1000 nM
mass increase of BTK protein after incubation with compound [4]: 595 Da
IC50 [5]: 100 to 1000 nM
IC50 [6]: 10 to 100 nM
pIC50 [7]: 6.52 to 8.00
IC50 [8]: 100 to 1000 nM
pIC50 ([9]; TABLE 9): 5.79
pIC50 ([9]; Table 14, RL human non-Hodgkin's lymphoma B cell line): 5.56
SMILES: Nc1ncnc2c1c(-c1ccc(Oc3ccccc3)cc1)nn2[C@@H]1CCCN(S(=O)(=O)c2c(F)c(F)c(F)c(F)c2F)C1 [Compound 5-1, (R)-1-(1-((perfluorophenyl)sulfonyl)piperidin-3-yl)-3-(4-phenoxyphenyl)-1H-pyrazolo[3,4-d]pyrimidin-4-amine]
cell-based efficacy compared with Ibrutinib ([9]; RL cells): better cell-based efficacy
